Results published in PMC12833730, “Discovery of a First‐in‐Class Covalent Allosteric SHP1 Inhibitor with Immunotherapeutic Activity” (Angewandte Chemie (International Ed. in English), 2025).
Where “and” joins values, the source holds several entries; their conditions need not be identical. Equal values may be shown once. Read-outs that look alike come from different tables or passages of the source.

Experiments:
SHP1 [1] = biological target: T1, SHP1 (Homo sapiens, UniProt P29350); assay: IC50 after 10-min/60-min preincubation, DiFMUP phosphatase assay; format: biochemical
T1 construct: SHP1, residues 245-543; made in house; host or cells: E. coli BL21(DE3)
T1 sequence (P29350 245-543): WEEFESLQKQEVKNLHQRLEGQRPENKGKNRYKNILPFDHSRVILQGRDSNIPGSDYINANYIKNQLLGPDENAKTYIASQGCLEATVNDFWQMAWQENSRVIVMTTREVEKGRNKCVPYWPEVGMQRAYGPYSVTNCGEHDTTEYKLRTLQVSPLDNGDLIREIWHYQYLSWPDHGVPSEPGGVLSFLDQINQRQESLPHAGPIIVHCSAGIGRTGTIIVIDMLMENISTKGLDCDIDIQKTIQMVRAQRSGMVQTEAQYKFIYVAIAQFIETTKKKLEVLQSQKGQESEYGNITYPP
Excerpt: The PTP‐catalyzed reaction involves a nucleophilic attack by the conserved active site Cys side chain on the phosphorus atom of phosphotyrosine in the substrate.^[ [53] ^] As such, the PTPs could serve as prime targets for covalent inhibition. Previously described activity‐based probes or covalent ligands for the PTPs are either phosphotyrosine isosteres or thiol‐reactive compounds that covalently modify the active site residues (including the catalytic Cys) and lack sufficient isozyme specificity.^[ [54], [55], [56], [57], [58], [59], [60], [61] ^] Inspired by the resurgence in covalent inhibitors for difficult drug targets, we set out to discover covalent SHP1 inhibitors by screening for electrophilic fragments that bind covalently to SHP1. This strategy is increasingly utilized to identify novel ligands for a target of interest.^[ [47], [62], [63] ^] We assembled a library of 4600 Cys reactive molecules from the Enamine covalent fragment collections containing 49.0% acrylamide, 38.1% chloroacetamide, 5.15% chloromethylketone, 5.20% activated nitrile, 2.10% epoxide, and 0.53% disulfide (Figure S1A). We carried out a high‐throughput biochemical fragment screening of this curated commercially available library against the SHP1 catalytic domain (residues 245–543). Each fragment (500 µM) was incubated with SHP1 (500 nM) for 30 min at room temperature before diluting the reaction 5.5‐fold with 24.45 mM para‐nitrophenyl phosphate (pNPP) to measure the residual PTP activity. This concentration of substrate was chosen to out‐compete any remaining fragment to reduce the inactivation of SHP1 during the enzymatic hydrolysis of pNPP. After a 2‐min incubation at 25 °C, the reaction was quenched by the addition of 5N NaOH, and the production of para‐nitrophenol was determined by absorbance at 405 nm. This assay format afforded a Z’‐factor of 0.70 (Figure S1B), indicating a robust screen to reliably identify hit molecules. To enhance the probability of discovering covalent ligands with inherent preference for SHP1, we also counter‐screened the same library against SHP2, the closest homolog of SHP1, and two other widely studied PTPs, PTP1B and PTPN22 (also called LYP). […] Among these, 31 were repurchased based on their observed preference for SHP1 and structural diversity, 11 of which were confirmed as potential covalent inhibitors for SHP1 based on the time dependency of their half‐maximal inhibition concentration (IC50) values determined with a 10‐min and 60‐min preincubation time, respectively (Table 1).
(§1) To further confirm the time-dependent inhibition and determine the IC50 of acquired hits, repurchased compounds from Enamine were serially diluted in a 96-well plate, followed by the addition of proteins at 200 nM. After 10-minute and 60-minute preincubation, 2 µL of the mixture was transferred into 100 µM 6,8-Difluoro-4-Methylumbelliferyl Phosphate (DiFMUP, Invitrogen, cat# D6567) at a final volume of 200 µL. The reaction was allowed to proceed for 5 minutes and quenched by the addition of 40 µl of a 160 µM solution of bpV(Phen) (Sigma-Aldrich, cat# SML0889). The fluorescence signal was measured using a CLARIOstar Plus Microplate Spectrophotometer (BMG Labtech) using excitation and emission wavelengths of 340 nm and 450 nm, respectively. Data were fitted using Prism GraphPad 10.1.1.

SHP2 = biological target: T2, SHP2 (Homo sapiens, UniProt Q06124); assay: IC50 after preincubation, DiFMUP phosphatase assay; format: biochemical
T2 construct: SHP2, residues 224-528; made in house; host or cells: E. coli BL21(DE3)
T2 sequence (Q06124 224-528): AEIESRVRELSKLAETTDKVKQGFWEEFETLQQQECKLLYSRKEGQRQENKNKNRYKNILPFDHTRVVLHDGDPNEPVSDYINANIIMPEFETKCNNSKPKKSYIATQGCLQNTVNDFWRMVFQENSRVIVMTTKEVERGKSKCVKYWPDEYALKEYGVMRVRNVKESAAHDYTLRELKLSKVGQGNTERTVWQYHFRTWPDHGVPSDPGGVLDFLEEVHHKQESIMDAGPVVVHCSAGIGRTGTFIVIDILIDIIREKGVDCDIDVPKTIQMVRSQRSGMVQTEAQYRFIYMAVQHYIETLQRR
Protocol: as §1

[2] = Intrinsic reactivity toward GSH, LC-MS; format: physicochemical
Protocol: (§2) The moderate half‐life in the presence of excessive GSH implied the low intrinsic reactivity of Z57117023. e) SHP1 protein was incubated with or without Z57117023 in 3,3‐dimethylglutarate buffer (pH = 7.0) for 60 min at room temperature to form a covalent adduct.
(§3) The area under the curve (AUC) of each measurement was normalized to 10 µM compounds to calculate the percent remaining. Data were fitted using Prism GraphPad 10.1.1.

GSH = assay: Intrinsic reactivity toward GSH, LC-MS; format: physicochemical; details: GSH in 3,3-dimethylglutarate (DMG) buffer, LC-MS
Protocol: as §2, §3

SHP1 [3] = biological target: T1, SHP1; assay: Intact protein LC-MS covalent adduct formation; format: binding; details: 60 min, room temperature, pH 7.0; single adduct
Protocol: as §2
Covalent inhibitors generally inactivate their targets through a two‐step process, starting with a reversible binding event (characterized by the dissociation constant K I) and followed by covalent bond formation (represented by the first‐order rate constant of inactivation k inact). Although IC50 values are often utilized to assess the potency of covalent inhibitors, the second‐order rate constant k inact/K I is preferred because it provides a measure of covalent inhibition in a time‐ and dose‐independent manner.^[ [60], [62], [67], [68] ^] […] A single SHP1‐Z57117023 adduct was observed when SHP1 was incubated with Z57117023, with a mass shift of 295.21 Da (calculated 295.54 Da) (Figure 1e), consistent with the loss of a chlorine atom from Z57117023.
The mixtures were centrifuged to remove the unfolded SHP1 proteins, and the supernatants were spiked with a control protein CDC14A, followed by loading into SDS‐PAGE gels to quantify the relative SHP1 level.

[4] = pH 7, 100-fold excess GSH, pH 7.0, room temperature, read-out: half-life (t1/2) toward excess GSH (converted)

| IC50 (SHP1 [1]; 10-min preincubation, purchased hits, read-out: SHP1 IC50, 10 min) [µM] | IC50 (SHP1 [1]; 60-min preincubation, purchased hits, read-out: SHP1 IC50, 60 min) [µM] | selectivity for SHP1 over SHP2, PTP1B, and PTPN22 (SHP1 [1]; from IC50 values) [fold] | IC50 (SHP1 [1]; resynthesized compound, 10 min preincubation, read-out: SHP1 IC50, 10 min preincubation) [µM] | IC50 (SHP1 [1]; resynthesized compound, 60 min preincubation, read-out: SHP1 IC50, 60 min preincubation) [µM] | IC50 (SHP2; 10-min preincubation, read-out: SHP2 IC50, 10 min) [µM] | IC50 (SHP2; 60-min preincubation, read-out: SHP2 IC50, 60 min) [µM] | reactivity toward GSH (in words) [2] | half-life at 10 µM (GSH; pH 7, 100-fold excess GSH, 3,3-dimethylglutarate buffer pH 7.0, room temperature, read-out: half-life with GSH) [h] | Compound | selectivity over a large panel of mammalian PTPs (SHP1 [1]; 60-min preincubation IC50 values, incl. SHP2) [fold] | IC50 (SHP1 [1]; 60-min preincubation, read-out: 60 min IC50, SHP1) [µM] | IC50 (SHP2; 60-min preincubation, read-out: 60 min IC50, SHP2) [µM] | fold less reactive toward GSH than Z57117023 ([2]; vs Z57117023) [fold] | half-life at 10 µM (GSH; [4]) [h] | mass shift of SHP1 covalent adduct (SHP1 [3]) |
| --- | --- | --- | --- | --- | --- | --- | --- | --- | --- | --- | --- | --- | --- | --- | --- |
| – | – | – | – | – | – | – | – | – | N#Cc1ccsc1NS(=O)(=O)c1ccc(NC(=O)CCl)cc1 [M029, 2-Chloro-N-(4-(N-(3-cyanothiophen-2-yl)sulfamoyl)phenyl)acetamide] | > 22.4 | 2.6 ± 0.5 | 58.2 ± 4.6 | 5 | 34.3 | 319.31 ± 1.14 Da and 319.31 Da |
| 99.1 | 17.5 | > 11 | 118 ± 8.3 | 25.2 ± 1.6 | > 200 | > 200 | minimal reactivity toward GSH | 7.07 ± 0.918 | O=C(CCl)Nc1ccc(S(=O)(=O)Nc2nccs2)cc1 [Z57117023, 2-chloro-N-(4-(N-(thiazol-2-yl)sulfamoyl)phenyl)acetamide] | – | – | – | – | ~7.1 | 295.21 Da |
